For orientation: IC50 means the concentration that gives 50% inhibition. One may read the melting point as the temperature of the solid-liquid transition.

The values that follow come from US20240018135A1, “COMPOUND HAVING INHIBITORY ACTIVITY AGAINST O-GLUSACASE AND USE THEREOF” (MEDIFRON DBT INC., priority 2020, published 2024).

In data set [1] the target is Human OGA (recombinant hOGA protein) (Homo sapiens (Human), UniProt O60502). Nature of the data set: Human OGA enzyme activity assay (fluorescence, 4-Methylumbelliferyl N-acetyl-β-D-glucosaminide substrate). In kind it is biochemical. Particulars: for IC50: Table 1; for % of inhibition: Table 1, test concentration not given.
Human OGA (recombinant hOGA protein), sequence (O60502 whole entry): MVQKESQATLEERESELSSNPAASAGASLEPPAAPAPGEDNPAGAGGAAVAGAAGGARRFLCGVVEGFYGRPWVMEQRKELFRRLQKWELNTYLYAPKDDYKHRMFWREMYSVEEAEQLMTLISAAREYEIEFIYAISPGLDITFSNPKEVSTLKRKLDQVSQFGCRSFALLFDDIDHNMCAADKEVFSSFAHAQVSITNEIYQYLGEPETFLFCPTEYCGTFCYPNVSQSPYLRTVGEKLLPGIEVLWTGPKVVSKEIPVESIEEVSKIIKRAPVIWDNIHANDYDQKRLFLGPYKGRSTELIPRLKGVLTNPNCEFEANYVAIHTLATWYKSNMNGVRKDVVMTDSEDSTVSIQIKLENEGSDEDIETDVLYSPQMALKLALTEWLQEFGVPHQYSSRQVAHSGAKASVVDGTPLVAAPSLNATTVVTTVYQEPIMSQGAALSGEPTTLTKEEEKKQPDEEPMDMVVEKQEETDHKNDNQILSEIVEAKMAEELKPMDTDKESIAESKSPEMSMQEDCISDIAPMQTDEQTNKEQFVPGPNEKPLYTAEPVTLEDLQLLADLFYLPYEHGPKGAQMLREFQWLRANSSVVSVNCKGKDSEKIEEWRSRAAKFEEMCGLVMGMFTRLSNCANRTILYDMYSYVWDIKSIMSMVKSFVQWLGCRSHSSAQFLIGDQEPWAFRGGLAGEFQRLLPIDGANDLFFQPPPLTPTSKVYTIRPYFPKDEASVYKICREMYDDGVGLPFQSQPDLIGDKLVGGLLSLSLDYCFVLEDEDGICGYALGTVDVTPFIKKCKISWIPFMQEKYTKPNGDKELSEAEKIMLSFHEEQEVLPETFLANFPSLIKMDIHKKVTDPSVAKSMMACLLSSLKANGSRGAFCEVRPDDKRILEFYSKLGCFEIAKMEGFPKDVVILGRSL

In the case of “1-((2-acetamidothiazol-5-yl)methyl)-N-(4-fluorophenyl)piperidine-4-carboxamide [Compound B-14]”, in data set [1], the IC50 is 300 nM and the “% of inhibition” value was 89.0%.

As for “1-((2-acetamidothiazol-5-yl)methyl)-N-(p-tolyl)piperidine-4-carboxamide [Compound B-15]”, in data set [1], the IC50 is 160 nM and the “% of inhibition” value turned out to be 91.2%.

Turning to `CC(=O)Nc1ncc(CN2CCN(CC(=O)Nc3ccccc3)CC2)s1` [Compound A-1, 2-(4-((2-acetamidothiazol-5-yl)methyl)piperazin-1-yl)-N-phenylacetamide], in data set [1], the IC50 is 2600 nM and the “% of inhibition” value is recorded as 78.3%.

Compound `CC(=O)Nc1ncc(CN2CCN(CC(=O)Oc3ccccc3)CC2)s1` [Compound A-2, phenyl 2-(4-((2-acetamidothiazol-5-yl)methyl)piperazin-1-yl)acetate] displayed a melting point of 185 to 194 °C. The “% of inhibition” value in data set [1] was found to be 34.6%.

The compound `CC(=O)Nc1ncc(CN2CCN(CC(=O)Nc3ccc(C)cc3)CC2)s1` [Compound A-3, 2-(4-((2-acetamidothiazol-5-yl)methyl)piperazin-1-yl)-N-(p-tolyl)acetamide] had a melting point of 213 to 217 °C. In addition, the “% of inhibition” value in data set [1] came out at 70.7%.

In the case of `CC(=O)Nc1ncc(CN2CCN(CC(=O)Nc3ccccc3C)CC2)s1` [Compound A-4, 2-(4-((2-acetamidothiazol-5-yl)methyl)piperazin-1-yl)-N-(o-tolyl)acetamide], the melting point lay in the range of 194 to 196 °C. In addition, in data set [1], the “% of inhibition” value is on record as 47.6%.

In the case of `CC(=O)Nc1ncc(CN2CCN(CC(=O)Nc3cccc(C)c3)CC2)s1` [Compound A-5, 2-(4-((2-acetamidothiazol-5-yl)methyl)piperazin-1-yl)-N-(m-tolyl)acetamide], the melting point fell in the range of 202 to 204 °C. Further, the “% of inhibition” value in data set [1] is given as 62.4%.

Compound `CC(=O)Nc1ncc(CN2CCN(CC(=O)Nc3ccc(C(C)C)cc3)CC2)s1` [Compound A-6, 2-(4-((2-acetamidothiazol-5-yl)methyl)piperazin-1-yl)-N-(4-isopropylphenyl) acetamide] came in with a melting point of 173 to 176 °C. In addition, the “% of inhibition” value in data set [1] is 79.2%.

In the case of `COc1ccc(NC(=O)CN2CCN(Cc3cnc(NC(C)=O)s3)CC2)cc1` [Compound A-7, 2-(4-((2-acetamidothiazol-5-yl)methyl)piperazin-1-yl)-N-(4-methoxyphenyl)acetamide], the melting point lay within 217 to 220 °C. For the same compound, in data set [1], the IC50 came to 840 nM and the “% of inhibition” value is on record as 84.2%.

With `COc1ccc(CCNC(=O)CN2CCN(Cc3cnc(NC(C)=O)s3)CC2)cc1` [Compound A-8, 2-(4-((2-acetamidothiazol-5-yl)methyl)piperazin-1-yl)-N-(4-methoxyphenethyl) acetamide], the melting point was in the range of 177 to 179 °C. Besides, in data set [1], the IC50 came to 630 nM and the “% of inhibition” value was 85.4%.

In the case of `COc1cccc(NC(=O)CN2CCN(Cc3cnc(NC(C)=O)s3)CC2)c1` [Compound A-9, 2-(4-((2-acetamidothiazol-5 yl)methyl)piperazin-1-yl)-N-(3-methoxyphenyl) acetamide.], the melting point lay within 210 to 212 °C. The “% of inhibition” value in data set [1] is 59.9%.

`COc1ccc(NC(=O)CN2CCN(Cc3cnc(NC(C)=O)s3)CC2)cc1OC` [Compound A-10, 2-(4-((2-acetamidothiazol-5-yl)methyl)piperazin-1-yl)-N-(3,4-dimethoxyphenyl)acetamide]: the melting point fell in the range of 182 to 184 °C. Also, the “% of inhibition” value in data set [1] turned out to be 62.4%.

For the compound `CC(=O)Nc1ncc(CN2CCN(CC(=O)Nc3ccc(F)cc3)CC2)s1` [Compound A-11, 2-(4-((2-acetamidothiazol-5-yl)methyl)piperazin-1-yl)-N-(4-fluorophenyl)acetamide], the melting point is 212 to 215 °C. In addition, in data set [1], the half-maximal inhibitory concentration (IC50) came out at 2610 nM and the “% of inhibition” value was 85.7%.

For `CC(=O)Nc1ncc(CN2CCN(CC(=O)Nc3ccc(Cl)cc3)CC2)s1` [Compound A-12], the melting point is 232 to 236 °C. In addition, in data set [1], the half-maximal inhibitory concentration (IC50) came out at 1990 nM and the “% of inhibition” value is 81.6%.

`CC(=O)Nc1ncc(CN2CCN(CC(=O)Nc3ccc(Cl)cc3Br)CC2)s1` [Compound A-13, 2-(4-((2-acetamidothiazol-5-yl)methyl)piperazin-1-yl)-N-(2-bromo-4-chlorophenyl)acetamide]: the melting point lay within 212 to 213 °C. Also, in data set [1], the IC50 was 1700 nM and the “% of inhibition” value was 85.2%.

`CC(=O)Nc1ccc(NC(=O)CN2CCN(Cc3cnc(NC(C)=O)s3)CC2)cc1` [Compound A-14, N-(4-acetamidophenyl)-2-(4-((2-acetamidothiazol-5-yl)methyl)piperazin-1-yl)acetamide] showed a melting point of 234 to 237 °C. Besides, in data set [1], the IC50 was 1250 nM and the “% of inhibition” value turned out to be 80.0%.

On to `CC(=O)Nc1ncc(CN2CCN(CC(=O)Nc3ccccn3)CC2)s1` [Compound A-15, 2-(4-((2-acetamidothiazol-5-yl)methyl)piperazin-1-yl) N-(pyridin-2-yl)acetamide], for which the “% of inhibition” value in data set [1] is 90.9%.

`CC(=O)Nc1ncc(CN2CCN(CC(=O)Nc3cccc(C)n3)CC2)s1` [Compound A-16] had a melting point of 224 to 228 °C. Also, the “% of inhibition” value in data set [1] was 38.6%.

With `CC(=O)Nc1ncc(CN2CCN(CC(=O)Nc3ccc(C)cn3)CC2)s1` [Compound A-17, 2-(4-((2-acetamidothiazol-5-yl)methyl)piperazin-1-yl)-N-(5-methylpyridin-2-yl) acetamide], the melting point lay within 224 to 230 °C. The “% of inhibition” value in data set [1] worked out at 64.3%.

In turn, `CC(=O)Nc1ncc(CN2CCN(CC(=O)Nc3cc(C)ccn3)CC2)s1` [Compound A-18, 2-(4-((2-acetamidothiazol-5-yl)methyl)piperazin-1-yl)-N-(4-methylpyridin-2-yl) acetamide] had a melting point of 210 to 211 °C. Besides, the “% of inhibition” value in data set [1] was 48.8%.

For `CC(=O)Nc1ncc(CN2CCN(CC(=O)Nc3cnccn3)CC2)s1` [Compound A-19, 2-(4-((2-acetamidothiazol-5-yl)methyl)piperazin-1-yl)-N-(pyrazin-2-yl)acetamide], the melting point is 224 to 226 °C. Also, the “% of inhibition” value in data set [1] came to 74.7%.

As to `CC(=O)Nc1ncc(CN2CCN(CC(=O)NC3CCCCC3)CC2)s1` [Compound A-20, 2-(4-((2-acetamidothiazol-5-yl)methyl)piperazin-1-yl)-N-cyclohexylacetamide], the melting point was in the range of 198 to 200 °C. For the same compound, in data set [1], the IC50 came to 1400 nM and the “% of inhibition” value is 89.0%.

The compound `CC(=O)Nc1ncc(CN2CCN(CC(=O)Nc3nccs3)CC2)s1` [Compound A-21, 2-(4-((2-acetamidothiazol-5-yl)methyl)piperazin-1-yl)-N-(thiazol-2-yl)acetamide] gave a melting point of 237 to 240 °C. Also, the “% of inhibition” value in data set [1] stood at 59.1%.

The compound `CC(=O)Nc1ncc(CN2CCN(CC(=O)Nc3ccc4ncccc4c3)CC2)s1` [Compound A-22, 2-(4-((2-acetamidothiazol-5-yl)methyl)piperazin-1-yl)-N-(quinolin-6-yl)acetamide] registered a melting point of 248 to 250 °C. In addition, in data set [1], the 50% inhibitory concentration (IC50) amounted to 900 nM and the “% of inhibition” value was found to be 97.5%.

Consider `CC(=O)Nc1ncc(CN2CCN(CC(=O)Nc3ccc4nccnc4c3)CC2)s1` [Compound A-23, 2-(4-((2-acetamidothiazol-5-yl)methyl)piperazin-1 yl)-N-(quinoxalin-6-yl)acetamide], for which the melting point is 234 to 235 °C. Further, in data set [1], the “% of inhibition” value came out at 70.1%.

`CC(=O)Nc1ncc(CN2CCN(CC(=O)Nc3cccc4ccccc34)CC2)s1` [Compound A-24, 2-(4-((2-acetamidothiazol-5-yl)methyl)piperazin-1-yl)-N-(naphthalen-1-yl)acetamide] yielded a melting point of 257 to 258 °C. For the same compound, the “% of inhibition” value in data set [1] is listed as 71.3%.

As for `CC(=O)Nc1ncc(CN2CCN(CC(=O)Nc3ccc4[nH]ccc4c3)CC2)s1` [Compound A-25, 2-(4-((2-acetamidothiazol-5-yl)methyl)piperazin-1-yl)-N-(1H-indol-5-yl)acetamide], the melting point was 216 to 219 °C. Besides, the “% of inhibition” value in data set [1] is on record as 59.2%.

Take `CC(=O)Nc1ncc(CN2CCN(CC(=O)Nc3nc4ccccc4[nH]3)CC2)s1` [Compound A-26, 2-(4-((2-acetamidothiazol-5-yl)methyl)piperazin-1-yl)-N-(1H-benzo[d]imidazol-2-yl)acetamide]: the melting point was 233 to 236 °C. The “% of inhibition” value in data set [1] was found to be 62.6%.

`CC(=O)Nc1ncc(CN2CCN(CC(=O)Nc3nc4ccccc4s3)CC2)s1` [Compound A-27, 2-(4-((2-acetamidothiazol-5-yl)methyl)piperazin-1 yl)-N-(benzo[d]thiazol-2-yl)acetamide] yielded a melting point of 248 to 249 °C. Besides, the “% of inhibition” value in data set [1] worked out at 46.2%.

Consider `COc1ccc2nc(NC(=O)CN3CCN(Cc4cnc(NC(C)=O)s4)CC3)sc2c1` [Compound A-28, 2-(4-((2-acetamidothiazol-5-yl)methyl)piperazin-1-yl)-N-(6-methoxybenzo[d]thiazol-2-yl)acetamide], for which, in data set [1], the “% of inhibition” value came to 19.2%.

As for `CC(=O)Nc1ncc(CN2CCC(C(=O)NC(C)c3ccc(C)cc3)CC2)s1` (stereo not shown) [Compound B-11, 1-((2-acetamidothiazol-5-yl)methyl)-N-(1-(p-tolyl)ethyl)piperidine-4-carboxamide], in data set [1], the 50% inhibitory concentration (IC50) turned out to be 830 nM and the “% of inhibition” value is 93.3%.

For `CC(=O)Nc1ncc(CN2CCC(C(=O)NC(C)c3ccc4ccccc4c3)CC2)s1` (stereo not shown) [Compound B-12, 1-((2-acetamidothiazol-5 yl)methyl)-N-(1-(naphthalen-2-yl)ethyl)piperidine-4-carboxamide], in data set [1], the IC50 is 250 nM and the “% of inhibition” value is 96.8%.
